Columns and labels:
fowl roundworms = experiment: Anthelmintic activity; type: in vivo; conditions: parasite not named at this place; stated in words only
[1] = Classification by basicity, acidity or neutrality; type: physicochemical
Text: (§1) Physico-chemical properties of PF […] substance, PF […] substance and PF […] substance thus obtained are given below: […]

[2] = Solubilities (physico-chemical properties); type: physicochemical
Text: as §1

SMILES: CC(C)C[C@H]1C(=O)O[C@H](C)C(=O)N(C)[C@@H](CC(C)C)C(=O)O[C@H](C)C(=O)N(C)[C@@H](CC(C)C)C(=O)O[C@H](C)C(=O)N(C)[C@@H](CC(C)C)C(=O)O[C@H](C)C(=O)N1C [PF 1022F substance]
- Anthelmintic activities (general statement) (fowl roundworms): having anthelmintic activities
- Classification by basicity, acidity or neutrality [1]: Neutral substance
- Solubility in organic solvents ([2]; chloroform, acetone, ethyl acetate, methanol and dimethylsulfoxide): Soluble
- Solubility in n-hexane ([2]; solvent: n-hexane): Insoluble
- Solubility in water ([2]; solvent: water): Insoluble
